Consider one molecule from PMC9698773, “Design, Synthesis, Molecular Modeling, and Anticancer Evaluation of New VEGFR-2 Inhibitors Based on the Indolin-2-One Scaffold” (Pharmaceuticals, 2022).

Values joined by “and” are separate entries in the source; they are usually repeats but may differ in a detail not shown here. Equal values may be shown once.

The test system of the experiment is BAX. The experiment is described as follows: BAX expression assay (Western blot). Type of experiment: cell-based, human. To be noted: HepG2, 1.13 µM, 24 h. Here is the method: The expression of BAX and Bcl-2 were evaluated in the HepG2 cells after treatment with 1.13 µM of compound 17a for 24 h. The Western blotting technique was utilized to determine the levels of Bax and Bcl-2 proteins and estimate the Bax/Bcl-2 ratio.
The expression of apoptotic BAX and antiapoptotic Bcl-2 proteins in the liver HepG2 cells treated with 1.13 μM of 17a was determined using Western blot analysis, as described in the Supplementary Materials. […]
Casp3 F: 5ʹ‐ […] ‐3ʹ
Casp3 R: 5ʹ‐ […] ‐3ʹ […]
β‐actin F: 5ʹ‐[…]‐3ʹ […]
β‐actin R: 5ʹ‐[…]‐3ʹ […]
4.2.6. Bax and Bcl‐2 expression assay
The expression of BAX and Bcl‐2 proteins were determined using Western blot anal‐ ysis. In brief, HepG2 cells were treated with control or with the synthesized compound 17a (1.13 μM). Then cells were lysed in 250 μL precold lysis buffer (pH 7.4: Tris‐Base [10 mM], NaCl [100 mM], ethylenediaminetetraacetic acid [EDTA, 25 mM], ethylene glycol bis (2‐ aminoethyl) tetraacetic acid [EGTA, 25 mM], 1% [v/v] NP‐40, and 1% [v/v] Triton X‐100) supplemented with 1:350 protease:phosphatase inhibitors cocktail (Sigma). The cells were immediately frozen at −20°C for 1.5 hours for further analysis, collected by cell scraper, sonicated 3 × 10 seconds, and centrifuged (13000 rpm, 15 minutes). Total protein concentrations in the supernatant were colorimetrically determined using the Pierce 660 nm Protein Assay method (Thermo Fisher Scientific, Rockford, IL), with BSA as the stand‐ ard. Equal amounts of protein (25 μg) samples were mixed with SDS‐loading buffer (pH 6.8: Tris‐HCl [700 mM], dithiothreitol [DTT, 600 mM], sodium dodecyl sulfate [SDS, 12%], glycerol [60%], and bromophenol blue [0.012%]), denatured by boiling at 95°C for 10 minutes, allowed to cool on ice for 15 minutes, vigorously vortexed for 30 seconds, loaded into SDS‐polyacrylamide gel and separated by an electrophoresis unit (Cleaver Scientific Ltd, UK), and transferred onto polyvinylidene fluoride membranes (Bio‐Rad) for 35 minutes using a Trans‐Blot SD semi‐dry transfer cell (Bio‐Rad) at 250 mA and 22 V. Mem‐ branes were blocked with 5% (w/v) blotting grade dry milk (Bio‐Rad) in Tris‐buffered saline/Tween‐20 (TBS‐T) (pH 7.5: Tris‐base [20 mM], NaCl [150 mM], and 0.05% [v/v] Tween‐ 20) while shaken for 1.5 hour at RT, and then incubated with the corresponding primary antibody against BAX (Biovision, USA) and Bcl‐2 (Bioimaging, system, syngene, UK) for 9‐10 hours at 4°C in a humidified chamber. […] Means of the detected blot intensities were then quantified, analyzed by the combined Bio‐Rad Image Lab soft‐ ware and their corresponding background subtracted, with normalization to the corre‐ sponding bands density of β‐actin as the sampling loading control. […]

Take `O=C1Nc2ccccc2C1=Nc1ccc(C(=O)NNC(=S)Nc2ccccc2)cc1` [Compound 17a, 2-(4-((2-Oxoindolin-3-ylidene)amino)benzoyl)-N-phenylhydrazinecarbothioamide]: the “increase of BAX expression versus control” value is 2.69 fold and 2.7 fold; the “increase of BAX/Bcl-2 ratio versus control” value amounted to 5 fold. The “Protein Expression (Normalized to β-Actin) BAX” value (control 0.175) came out at 0.472. Also, where the note is “control 0.41”, the “BAX/Bcl-2 Ratio” value was 2.06.
